Measured values from ChEMBL document CHEMBL1155497, “Double stranded DNA discrimination by di-pyrene modified gamma-cyclodextrin” (Bioorg Med Chem Lett, 2010).
One block for each compound: values may come before it. Active and inactive are the calls of the source. The calls are words filed in the database; no cut-off is given here.

What was measured:
Type in all cases: nucleic-acid assay
Nucleic Acid [1] = test: Binding affinity to double strand DNA assessed as increase in fluorescence intensity by fluorescence spectroscopy technique
Nucleic Acid [2] = test: Binding affinity to single strand DNA assessed as increase in fluorescence intensity using 0.00075 uM of DNA by fluorescence spectroscopy technique
Nucleic Acid [3] = test: Binding affinity to single strand DNA assessed as increase in fluorescence intensity using > 0.00075 uM of DNA by fluorescence spectroscopy technique
Nucleic Acid [4] = test: Binding affinity to double strand DNA assessed as increase in fluorescence intensity using > 0.00075 uM of DNA at 0.3 uM by fluorescence spectroscopy technique
Nucleic Acid [5] = test: Binding affinity to single strand DNA assessed as increase in fluorescence intensity at 0.3 uM by fluorescence spectroscopy technique
Nucleic Acid [6] = test: Binding affinity to double strand DNA assessed as increase in fluorescence intensity using 0.00075 uM of DNA at 0.3 uM by fluorescence spectroscopy technique
Nucleic Acid [7] = test: Binding affinity to single strand DNA assessed as increase in fluorescence intensity at 0.6 uM by fluorescence spectroscopy technique
Nucleic Acid [8] = test: Binding affinity to single strand DNA assessed as increase in fluorescence intensity at 0.1 uM by fluorescence spectroscopy technique
Nucleic Acid [9] = test: Binding affinity to double strand DNA assessed as increase in fluorescence intensity at 0.1 uM by fluorescence spectroscopy technique
Nucleic Acid [10] = test: Binding affinity to double strand DNA assessed as increase in fluorescence intensity at 0.6 uM by fluorescence spectroscopy technique

Activity (Nucleic Acid [1]): Active
Activity (Nucleic Acid [2]): Active
Activity (Nucleic Acid [3]): Active
SMILES: CCCN(CCCN(C)C)C1=CC(Cc2sc3ccccc3[n+]2C)c2ccccc2N1c1ccccc1 (stereo not given)

Activity (Nucleic Acid [4]): inactive
Activity (Nucleic Acid [5]): inactive
Activity (Nucleic Acid [6]): Active
SMILES: O=C(NCCOCCOCCOCc1ccc2ccc3cccc4ccc1c2c34)SC[C@H]1O[C@@H]2O[C@H]3[C@H](O)[C@@H](O)[C@@H](O[C@H]4[C@H](O)[C@@H](O)[C@@H](O[C@@H]5[C@@H](CO)C[C@H](O[C@H]6[C@H](O)[C@@H](O)[C@@H](O[C@H]7[C@H](O)[C@@H](O)[C@@H](O[C@H]8[C@H](O)[C@@H](O)[C@@H](O[C@H]9[C@H](O)[C@@H](O)[C@@H](O[C@H]1[C@H](O)[C@H]2O)O[C@@H]9CO)O[C@@H]8CO)O[C@@H]7CO)O[C@@H]6CSC(=O)NCCOCCOCCOCc1ccc2ccc6cccc7ccc1c2c67)[C@H](O)[C@H]5O)O[C@@H]4CO)O[C@@H]3CO

Activity (Nucleic Acid [7]): inactive
Activity (Nucleic Acid [8]): inactive
Activity (Nucleic Acid [9]): inactive
Activity (Nucleic Acid [10]): inactive
SMILES: O=C(CSC[C@H]1O[C@@H]2O[C@@H]3[C@@H](CO)C[C@H](O[C@H]4[C@H](O)[C@@H](O)[C@@H](O[C@H]5[C@H](O)[C@@H](O)[C@@H](O[C@H]6[C@H](O)[C@@H](O)[C@@H](O[C@H]7[C@H](O)[C@@H](O)[C@@H](O[C@H]8[C@H](O)[C@@H](O)[C@@H](O[C@H]9[C@H](O)[C@@H](O)[C@@H](O[C@H]1[C@H](O)[C@H]2O)O[C@@H]9CO)O[C@@H]8CSCC(=O)NCCOCCOCCOCc1ccc2ccc8cccc9ccc1c2c89)O[C@@H]7CO)O[C@@H]6CO)O[C@@H]5CO)O[C@@H]4CO)[C@H](O)[C@H]3O)NCCOCCOCCOCc1ccc2ccc3cccc4ccc1c2c34
